Columns and labels:
SNU-16 cells [1] = experiment: Transwell migration and invasion assay; assay type: cell-based; conditions: SNU-16, 100 nM, 24 h
Procedure: (§1) In the migration assay, 1×10^5 cells were resuspended in a serum-free medium, then added into the upper chamber, meanwhile the medium containing 10% FBS was added at the bottom with 100 nM RK-019. After 24 h incubation, the migration cells on the filters were fixed with 4% paraformldehyde and washed with PBS, then stained with crystal violet solution for 20 min. In the invasion assay, the upper surface of the transwell was coated with Matrigel (356234, Corning) for 30 min at 37°C until Matrigel was solidified. 1×10^5 cells were resuspended in a serum-free medium, then added into the upper chamber, meanwhile the medium containing 10% FBS was added at the bottom with 100 nM RK-019.After 24 h , the invasion cells on the filters were hatched and fixed, then stained with crystal violet.

KATO III cells [2] = experiment: Transwell migration and invasion assay; assay type: cell-based; conditions: 100 nM, 24 h
Procedure: as §1

SNU-16 cells [3] = experiment: Apoptosis analysis by flow cytometry (Annexin V-PE/7-AAD); assay type: cell-based; conditions: SNU-16, 72 h
Procedure: (§2) Cell cycle and apoptosis assay were both measured by flow cytometry (FCM). The data were analyzed by the NovoExpress software (v1.4.0, Agilent, Santa Clara, CA, United States). For cell cycle assay, the cells were treated by different concentrations of RK-019 for 24 h, then were harvested and washed twice with cold phosphate buffered solution (PBS), followed by fixed with 75% ethanol overnight. Before test, the cells were washed twice with cold PBS and stained with PI stanning solution using cell cycle detecting kit (KGA512, KeyGEN, Nanjing, China), and then measured by FCM. […]

KATO III cells [4] = experiment: as above; assay type: cell-based; conditions: 72 h
Procedure: as §2

KATO III cells [5] = experiment: Cell cycle analysis by flow cytometry (PI staining); assay type: cell-based; conditions: 100 nM, 24 h
Procedure: Cell cycle and apoptosis assay were both measured by flow cytometry (FCM). The data were analyzed by the NovoExpress software (v1.4.0, Agilent, Santa Clara, CA, United States). For cell cycle assay, the cells were treated by different concentrations of RK-019 for 24 h, then were harvested and washed twice with cold phosphate buffered solution (PBS), followed by fixed with 75% ethanol overnight. Before test, the cells were washed twice with cold PBS and stained with PI stanning solution using cell cycle detecting kit (KGA512, KeyGEN, Nanjing, China), and then measured by FCM. For apoptosis assay, the cells were harvested after treated with different concentrations of RK-019 for 24 h, and stained with a PE Annexin V Apoptosis Detection Kit according to the manufacturer’s protocol followed by detected using FCM.

SNU-16 cells [6] = experiment: Edu staining assay; assay type: cell-based; conditions: SNU-16, 100 nM, 24 h
Procedure: (§3) For Edu staining assay, 1×10^5 cells were seeded in 24-well plates. RK-019 and DMSO were treated as soon as the cells seeded into the plates. After 24 h, the cells were incubated with the medium contained 10 µM Edu for 2 h. After that, the cells were collected and fixated to slide, and then stained with the Cell-Light EdU Apollo488 In Vitro Kit (C10310, Ribobio, Guangzhou, China). After staining, the samples were photographed and analyzed by the ImageJ software (v1.53a, Wayne Rasband, United States).

KATO III cells [7] = experiment: Edu staining assay; assay type: cell-based; conditions: 100 nM, 24 h
Procedure: as §3

[8] = test system: FGFR2 phosphorylation and downstream proteins in KATO III cells; experiment: Western blot of FGFR signal proteins; assay type: cell-based; conditions: 24 h
Procedure: (§4) The cells treated with RK-019 at indicated concentration for 24 h were harvested and lysed in 1× RIPA buffer (20e188, MilliporeSigma, Burlington, MA, United States), which contained protease inhibitor cocktail (B14001, Bimake, Houston, TX, United States) and phosphatase inhibitor cocktail (B15001, Bimake), for 30 min and equalized by concentration of the total protein before loading. Using sodium dodecyl sulphate - polyacrylamide gel electrophoresis (SDS-PAGE) to separate the protein sample and transfer to PVDF membranes (ISEQ00010, MilliporeSigma). The membranes were incubated with relevant primary antibody and corresponding HRP-labeled secondary antibody. Then, chemiluminescence was used to detect target bands. ImageJ software were used to make the gradation analysis.
(§5) In western blot, results analysis of relative phosphorylation quantification level, data were firstly calculated according to the following formular: Protein Relative phosphorylation data = Gp/Gup. Gp means the gradation level of target phosphorylation protein band and Gup means the gradation level of target total protein band. Then, the relative phosphorylation level can be calculated by the following formular: Protein Relative expression level = Pt/Pc ×100%. Pt means the relative phosphorylation data or target group and Pc means the relative phosphorylation data of control group.

[9] = test system: FGFR2 phosphorylation and downstream proteins in SNU-16 cells; experiment: Western blot of FGFR signal proteins; assay type: cell-based
Procedure: as §4, §5

CK1(y) = experiment: Kinase selectivity panel; assay type: biochemical, yeast; conditions: read-out: Inhibition(%) @ 1 µM RK-019
Procedure: Median-inhibitory concentration (IC50) and inhibition ratio of kinases by RK-019 was assessed by Eurofins Discovery Services (Dundee, United Kingdom) using the ATP-site competition binding assay in vitro. Firstly, gradient concentration of RK-019 against FGFRs, including FGFR1, FGFR2, FGFR3, and FGFR4, were tested. IC50 value was calculate by the GraphPad Prism software (v8.4.3, GraphPad Software, California, United States). Then, to measure the selectivity prolife of RK-019, a panel of 422 recombinant human kinases was screened at a concentration of 1 µM RK-019. Kinase MAP was drawn by webtools from Cell Signaling Technology, Inc. (www.cellsignal.com).

SNU-16 cells [10] = experiment: Cell counting assay (trypan blue); assay type: cell-based; conditions: SNU-16, 10 and 100 nM, 9 days
Procedure: (§6) SNU-16 and KATO III were seeded in 6-well plated with 1×10^5 per well. RK-019 was treated as soon as the cells seeded in the 6-well plates. After indicated time, the images were captured using an inverted microscope. Then, the cells in the captured well were resuspended and live cell numbers were determined by the trypan blue (BL627A, Biosharp, Hefei, China) method.

KATO III cells [11] = experiment: Cell counting assay (trypan blue); assay type: cell-based; conditions: KATO III, 5, 10, and 100 nM, 9 days
Procedure: as §6

Q: Which results are given for COc1cc(OC)cc(N(CCN[C@H](C)CO)c2ccc3ncc(-c4cnn(C)c4)c(=O)n3c2)c1 [RK-019, (R)-7-((3,5-dimethoxyphenyl) (2-((1-hydroxypropan-2-yl)amino)ethyl)amino)-3-(1-methyl-1H-pyrazol-4-yl)-4H-pyrido [1,2-a]pyrimidin-4-one]?
A: migration and invasion ability (SNU-16 cells [1]): significantly suppress; migration and invasion ability (KATO III cells [2]): significantly suppress; population of apoptotic cells (early and late apoptotic cells) (SNU-16 cells [3]): 45.5%; population of apoptotic cells (early and late apoptotic cells) (KATO III cells [4]): 32.7%; G0/G1 proportion (KATO III cells [5]): 67.88%; number of Edu-positive stained cells (SNU-16 cells [6]): significantly decreased; number of Edu-positive stained cells (KATO III cells [7]): significantly decreased; protein expression level of phosphorylated FGFR2 T653/T654 ([8]; KATO III, 0.1, 1, 5, 10, and 100 nM): decreased; AKT and Erk phosphorylation levels ([8]; KATO III): decreased; FRS2 and PLCγ phosphorylation levels ([8]; KATO III): significantly decreased; protein expression level of phosphorylated FGFR2 T653/T654 ([9]; SNU-16, 0.1, 1, 5, 10, and 100 nM, 24 h): decreased; AKT and Erk phosphorylation levels ([9]; SNU-16, 24 h): decreased; FRS2 and PLCγ phosphorylation levels ([9]; SNU-16, 24 h): significantly decreased; activity (CK1(y)): 94%; live cell numbers, prolonged administration (SNU-16 cells [10]): inhibited; live cell numbers, prolonged administration (KATO III cells [11]): suppressed

Reference: publication PMC9532703, “A novel small molecule RK-019 inhibits FGFR2-amplification gastric cancer cell proliferation and induces apoptosis in vitro and in vivo” (Frontiers in Pharmacology, 2022)
